Data from patent US20160199343A1, “COMPOUNDS AND FORMULATIONS FOR THE TREATMENT OF WOUNDS” (NITTO DENKO CORPORATION, priority 2013, published 2016).

Key:
S. aureus = conditions: cited from earlier work
[1] = system: infected and other superficial wounds; conditions: 120 patients, wounds treated with sugar; cited from earlier work
[2] = system: full-thickness skin wounds; assay: Mouse full-thickness skin wound model, scar analysis by histology; format: in vivo; conditions: for reduction in scar index: full thickness excisional wounds in mice, same application formulation, versus control group
Procedure: The mouse model used here can be considered one of the simplest and standard murine models for investigating scar formation and wound healing.
Mice were weighed and then anaesthetized with 5% isoflurane in air for induction and then administered 2.5-3% of isoflurane in air for the remainder of the procedure. The animals were administered Tramal (Tramadol) intraperitoneally for analgesia at a 0.1 mg/kg dose. Before surgery the back of the mice was shaved and disinfected with isobetadine soap, rinsed with water and then swabbed with iodium alcohol.
The back of the mice was shaved and four full-thickness skin wounds were performed by cutting the folded skin on the back of the mice with a 7.5 mm×3 mm elliptical biopsy punch (Elliptical Excisional Instrument, Acuderm Inc.). The skin on the back was raised and folded at the level of the vertebral column by using the thumb and the index finger. The folded skin was then placed on a wood tongue depressor with the animal laying on one side and two wounds were performed through the folded skin by using an elliptical biopsy punch (Elliptical Excisional Instrument, Acuderm Inc.), resulting in four wounds on the back skin: two on the right of the vertebral column and two on the left (FIG. 9). The epidermis, the dermis and the fat tissue in the wound was carefully removed without touching other tissues. The wounds were then immediately treated with topical application of either the hydrogel or the ointment (glycerol+HEPES buffer) formulation containing the active substance (T1 and T2) or vehicle (Tv) and one wound was (Ts) left untreated (FIG. 9). The position of the wounds was randomised according to a list. The wound site was then covered with OP-Film (Somed International, the Netherlands) (FIG. 9). The borders were then fixed with cyanoacrylate glue (Loctite).
This model is identical to the excisional model above except that the wounds were closed with three sutures.
The treatment was repeated at the day 1, 2, 3 and 4 post-surgery for a total of 5 treatments in the first 5 days of healing. At each time point the mice were briefly anaesthetized with isoflurane and a new dose of ointment was injected through the film onto the wound, after which the animal was left to recover. At day 5 all films were removed.
After 14 days the mice were sacrificed under isoflurane anaesthesia by cervical dislocation to harvest the regenerated tissue. At sacrifice the mice were weighed and a gross necropsy was performed during which the following tissues are harvested:
Skin samples were also taken. The back of the mouse was carefully shaved paying careful attention to not touch the wound area. […]
The extent of scarring was measured in accordance with the procedure set out by Khorasani et al (2011). […]

3T3 mouse fibroblast = assay: In vitro scratch assay; format: cell-based; conditions: 3000 μM in culture medium, followed up to 12 hrs post scratching, linear regression
Procedure: The compounds of Formula (1) and (1a) were also tested by means of an in vitro model of wound healing. An in vitro scratch assay was performed as was described in Nature Protocols by Liang et al., 2007. In short, 3T3 mouse fibroblast were seeded onto a fibronectin coated 6-well plate and the confluent monolayers were scratched with a 200 μl pipette tip to obtain a linear gap in the monolayer. The closure of this monolayer was then followed up to 12 hrs post scratching. In order to evaluate the effect of the compound (isosorbide, isoidide and isomannide) either 30 μM or 3000 μM of the test compound were added to the culture medium. The increased dose was applied as the model cannot be entirely related to the in vivo situation as the closure time of this model is considerably faster as the in vivo wound (<18 hrs vs. weeks, resp.). The basic medium comprised DMEM, FCS 5%, HEPES 20 mM, L-glutamine 4 mM and 1% pen/strep. Hereto either nothing or the aforementioned concentrations of test compounds were added.

SMILES	sugar solution concentration affecting complete in vitro growth of S. aureus (S. aureus)	curing rate [1]	reduction in scar index [2]	effect on closure speed (reduction) (3T3 mouse fibroblast)	Scar index compared to Vehicle-treated / control group (statistics) ([2]; 1-way ANOVA with Dunnet's comparison, p<0.05)	Collagen organisation trend ([2]; mouse wounds, upon administration)
OC[C@H]1O[C@@](CO)(O[C@H]2O[C@H](CO)[C@@H](O)[C@H](O)[C@H]2O)[C@@H](O)[C@@H]1O [sugar, sucrose]	183 g/100 g water	99.2%				
O[C@@H]1CO[C@H]2[C@@H]1OC[C@H]2O [Isomannide, 1,4:3,6-dianhydro-D-mannitol]			38%	23%		
O[C@@H]1CO[C@H]2[C@@H]1OC[C@@H]2O [Isosorbide]				10%	significantly different from Control and Vehicle	increased values
O[C@H]1CO[C@H]2[C@@H]1OC[C@@H]2O [Isoidide, 1,4:3,6-Dianhydro-D-iditol]			44%	27%		
